Measurements taken from patent US20090304744A1, “METHODS OF ENHANCING IMMUNE RESPONSE IN THE INTRADERMAL COMPARTMENT AND COMPOUNDS USEFUL THEREOF” (priority 2003, published 2009).
Read-outs that look alike come from different tables or passages of the source.

Experiments:
[1] = test system: influenza antigen (Influenza APR834); assay type: in vivo, Balb/c mice; conditions: for Trend in immune response as indicated by ELISA signal (1:123 serum screening dilution): mice
guinea pig skin = assay: Guinea pig erythema Draize scoring after ID delivery of excipients; assay type: in vivo, Hartley guinea pigs; conditions: Tween 80 5%, Deoxycholate 0.1%, D-sorbitol 5%, Lutrol 15%; without antigen, 50 ul per injection, 34 gauge 1.0 mm; immediate, 1 h and 24 h readings
Text: The methods of the invention provide fundamental principles and guidelines whereby optimum parameters may be determined for delivering immunogenic compositions to the dermal compartment (including epidermal and intradermal compartments) wherein the excipients have optimum adjuvant properties and the formulations of the invention have enhanced efficacy in comparison to when the same formulation is delivered using conventional modes of delivery, including intramuscular and subcutaneous delivery. The invention provides methods wherein the formulations of the invention have been screened to have optimum concentration ranges for delivery to the optimum depth of the intradermal compartment such that they have adjuvant properties, resulting in one or more of the following properties: minimal to no skin irritation as determined and assessed using conventional modes of analysis of skin reactions using visual methods such as Draize scoring (For a typical draize scoring analysis see table below); minimal to no hemolysis as determined using standard methods known in the art, and enhanced immune response as measured by enhanced seroconversion and/or enhanced antibody titers.
Erythema Draize scores for various excipients were determined using procedures described in Section 5.4, above. In one study, Tween™ 80 (5%), Deoxycholate (0.1%), D-sorbitol (5%) or Lutrol™ (15%) was administered (50 μl per injection) without the antigen to Hartley guinea pigs using 34 gauge, 1.0 mm needles. […] Deeper administrations will be necessary for deoycholate to be used reliably at this concentration. From left to right, the reading immediately after administration, the one-hour reading and the 24-hour reading.

[2] = test system: trivalent test antigen (New Calcdonia, Panama and B-Hong Kong); parameters: species or system Hartley Guinea Pigs; conditions: guinea pig, in vivo
swine skin = conditions: for Erythema Draize scores (tolerability): Tween 80 5%, Deoxycholate 0.1%, D-sorbitol 5%, Lutrol 15%, without antigen, 200 ul per injection, 31 gauge 1.5 mm, 1 h and 24 h readings; for tolerated amphotericin per dose / tolerated total amphotericin per dose: Draize score 1 hour post administration
[3] = Yorkshire swine, 1.5 mm depth, listed as Amp-B

## O=S([O-])O.[Na+] [Sodium Bisulfite]
[1]; excipient 0.3% w/v with FLUZONE, ID
  Trend in immune response as indicated by ELISA signal (1:123 serum screening dilution): 0.808
[1]; excipient 0.9% w/v with FLUZONE, ID
  Trend in immune response as indicated by ELISA signal (1:123 serum screening dilution): 1.833
[1]; excipient 2.7% w/v with FLUZONE, ID
  Trend in immune response as indicated by ELISA signal (1:123 serum screening dilution): 2.048

## NC(N)=O [Urea]
[1]; excipient 1% w/v with FLUZONE, ID
  Trend in immune response as indicated by ELISA signal (1:123 serum screening dilution): 0.979
[1]; excipient 5% w/v with FLUZONE, ID
  Trend in immune response as indicated by ELISA signal (1:123 serum screening dilution): 1.585
[1]; excipient 20% w/v with FLUZONE, ID
  Trend in immune response as indicated by ELISA signal (1:123 serum screening dilution): 1.555

## Triton X-100
[1]; excipient 0.0001% w/v with FLUZONE, ID
  Trend in immune response as indicated by ELISA signal (1:123 serum screening dilution): 1.321
[1]; excipient 0.0009% w/v with FLUZONE, ID
  Trend in immune response as indicated by ELISA signal (1:123 serum screening dilution): 1.214

## C[C@H](CCC(=O)[O-])[C@H]1CC[C@H]2[C@@H]3CC[C@@H]4C[C@H](O)CC[C@]4(C)[C@H]3C[C@H](O)[C@]12C.[Na+] [Deoxycholate, sodium deoxycholate]
[1]; DOC-supplemented (0.1% sodium deoxycholate) FLUZONE, ID, Balb/c mice
  animals seroconverted 21 days after immunization: 5 of 5
[1]; ID formulation containing 0.1% sodium deoxycholate vs IM and ID without, Balb/c mice
  median titer: best median titer
Guinea pig skin
  Erythema Draize scores (tolerability): just above the acceptable draize score
[2]
  hemagglutin specific titer vs FLUZONE alone ID and FLUZONE alone IM: outperformed
Swine skin
  Erythema Draize scores (tolerability): just above the acceptable draize score
Swine skin; deoxycholate 0.05 and 0.1% +/- trivalent vaccine, 1.5 mm depth, Yorkshire swine
  skin compatibility: performed well
Swine skin; deoxycholate 0.5% W/V and higher, 1.5 mm depth
  skin compatibility: could not be tolerated

## CCO [Ethanol]
[1]; excipient 0.05% v/v with FLUZONE, ID
  Trend in immune response as indicated by ELISA signal (1:123 serum screening dilution): 0.901
[1]; excipient 0.15% v/v with FLUZONE, ID
  Trend in immune response as indicated by ELISA signal (1:123 serum screening dilution): 2.742
[1]; excipient 0.45% v/v with FLUZONE, ID
  Trend in immune response as indicated by ELISA signal (1:123 serum screening dilution): 1.530

## oxtoxynol 9 [Triton N-101]
[1]; excipient 0.13% w/v with FLUZONE, ID
  Trend in immune response as indicated by ELISA signal (1:123 serum screening dilution): 0.805
[1]; excipient 1.3% w/v with FLUZONE, ID
  Trend in immune response as indicated by ELISA signal (1:123 serum screening dilution): 2.035

## C[C@@H]1[C@H](O)[C@@H](C)/C=C/C=C/C=C/C=C/C=C/C=C/C=C/[C@H](O[C@@H]2O[C@H](C)[C@@H](O)[C@H](N)[C@@H]2O)C[C@@H]2O[C@](O)(C[C@@H](O)C[C@@H](O)[C@H](O)CC[C@@H](O)C[C@@H](O)CC(=O)O[C@H]1C)C[C@H](O)[C@H]2C(=O)O [Amphotericin B, reference compound]
[1]; excipient 20 ng/ml with FLUZONE, ID
  Trend in immune response as indicated by ELISA signal (1:123 serum screening dilution): 0.975
[1]; excipient 60 ng/ml with FLUZONE, ID
  Trend in immune response as indicated by ELISA signal (1:123 serum screening dilution): 1.575
[1]; excipient 180 ng/ml with FLUZONE, ID
  Trend in immune response as indicated by ELISA signal (1:123 serum screening dilution): 1.018
Swine skin; Yorkshire swine, 1.5 mm depth
  tolerated amphotericin per dose: up to 600 ng/100 ul
  tolerated total amphotericin per dose: ≤ 1200 ng/200 ul
Swine skin; [3]
  tolerated amphotericin per dose: 600 ng/100 ul
  tolerated total amphotericin per dose: 1200 ng/200 ul
Swine skin; alone and as a mixture with FLUZONE vaccine, 1.5 mm depth, Yorkshire swine
  tolerability by Draize score analysis: well tolerated

## OC[C@@H](O)[C@@H](O)[C@H](O)[C@@H](O)CO [D-sorbitol]
[1]; Fluzone supplemented with sorbitol, ID, six point ELISA
  serum titer enhancement vs equal amount of Fluzone without sorbitol: 3 ×
[1]; excipient 2% w/v with FLUZONE, ID
  Trend in immune response as indicated by ELISA signal (1:123 serum screening dilution): 1.062
[1]; excipient 10% w/v with FLUZONE, ID
  Trend in immune response as indicated by ELISA signal (1:123 serum screening dilution): 1.102
[1]; excipient 58% w/v with FLUZONE, ID
  Trend in immune response as indicated by ELISA signal (1:123 serum screening dilution): 1.58
Guinea pig skin
  Erythema Draize scores (tolerability): reasonably well-tolerated
Swine skin; 10% W/V, 1-2 mm depth, 20-24 hours post administration, Yorkshire swine
  erythema: mild erythema
Swine skin; 10%, delivered to 1-2 mm depth, Yorkshire swine
  tolerability: well tolerated
Swine skin
  Erythema Draize scores (tolerability): reasonably well-tolerated
